# Columns and labels:
# [1] = biological target: T1, acyl-CoA:cholesterol acyltransferase (ACAT) (Oryctolagus cuniculus, UniProt G1SFD9); test: in vitro ACAT inhibition test (radiolabeled cholesterol oleate formed from radiolabeled oleic acid, rabbit intestinal microsomes); type: biochemical; details: inhibition of acylation of cholesterol by oleic acid
# T1 construct: a tissue preparation containing rabbit intestinal microsomes; from tissue; host or cells: rabbit intestinal microsomes
# T1 sequence (G1SFD9 1-524): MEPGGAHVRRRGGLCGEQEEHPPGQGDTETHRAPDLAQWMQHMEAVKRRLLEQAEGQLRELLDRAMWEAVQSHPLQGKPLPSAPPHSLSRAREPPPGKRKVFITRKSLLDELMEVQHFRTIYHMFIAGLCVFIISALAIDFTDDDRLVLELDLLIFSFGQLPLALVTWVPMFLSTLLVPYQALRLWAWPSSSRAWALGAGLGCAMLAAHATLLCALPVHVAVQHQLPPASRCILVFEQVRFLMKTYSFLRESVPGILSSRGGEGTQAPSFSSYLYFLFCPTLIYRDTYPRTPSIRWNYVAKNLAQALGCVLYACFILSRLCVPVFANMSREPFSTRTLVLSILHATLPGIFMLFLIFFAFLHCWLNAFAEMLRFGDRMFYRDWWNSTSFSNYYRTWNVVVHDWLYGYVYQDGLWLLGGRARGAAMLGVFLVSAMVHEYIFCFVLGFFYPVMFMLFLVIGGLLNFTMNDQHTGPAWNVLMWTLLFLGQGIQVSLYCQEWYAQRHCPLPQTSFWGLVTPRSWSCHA
# Excerpt: As shown by the data presented below in Table 1, the compounds of the present invention are potent inhibitors of the enzyme acyl-CoA:cholesterolacyltransferase (ACAT), and are thus effective in inhibiting the esterification and transport of cholesterol across the intestinal cell wall. The compounds of the present invention are thus useful in pharmaceutical formulations for the treatment of hypercholesterolemia or atherosclerosis. The ability of representative compounds of the present invention to inhibit ACAT was measured using an in vitro test more fully described in Field, F. J. and Salone, R. G., Biochemica et Biophysica 712:557-570 (1982). The test assesses the ability of a test compound to inhibit the acylation of cholesterol by oleic acid by measuring the amount of radio-labeled cholesterol oleate formed from radiolabeled oleic acid in a tissue preparation containing rabbit intestinal microsomes. The data appear in Table 1 where they are expressed as IC50 values; i.e. the concentration of test compound required to inhibit 50% expression of the enzyme.
# [2] = PCC in vivo screen, blood total cholesterol in cholesterol-fed rats; details: male Sprague-Dawley rats, diet with 5.5% peanut oil, 1.5% cholesterol, 0.3%-0.5% cholic acid, 0.05% drug in diet, one week
# Excerpt: In one in vivo screen, designated PCC, male Sprague-Dawley rats (approximately 200 g body weight) are randomly divided into groups and provided ad libidum a regular chow diet (Purina No. 5002, Ralston Purina Co., 711 West Fuesser Road, Mascoutah, Ill., 62224, USA), supplemented with 5.5% peanut oil, 1.5% cholesterol, and 0.3%-0.5% cholic acid, together with 0.05% of the test drug which is admixed into the diet. After one week the animals are etherized and a blood sample is taken from the heart and mixed with 0.14% ethylenediamine tetraacetic acid (EDTA) to measure the total cholesterol.
structure (smiles),measurement,setting,value
"CC(C)c1cccc(C(C)C)c1NC(=O)NCC(c1ccccc1)c1ccccc1 [Example 4, N-[2,6-bis(1-methylethyl)phenyl]-N'-(2,2-diphenylethyl)urea]",IC50,[1],24 nM
same,Blood Cholesterol,[2],95 mg/dL
same,Blood Cholesterol % Change,[2],-52%
"CCc1cccc(CC)c1NC(=O)NCC(c1ccccc1)c1ccccc1 [Example 3, N-(2,6-Diethylphenyl)-N'-(2,2-diphenylethyl)urea]",IC50,[1],91 nM
same,Blood Cholesterol,[2],105 mg/dL
same,Blood Cholesterol % Change,[2],-53%
"CC(C)c1cccc(C(C)C)c1NC(=O)NC(c1ccccc1)c1ccccc1 [Example 5, N-[2,6-bis(1-methylethyl)phenyl)-N'-(diphenylmethyl)urea]",IC50,[1],45 nM
"CCc1cccc(CC)c1NC(=O)NC(c1ccccc1)c1ccccc1 [Example 2, N-(2,6-Diethylphenyl)-N'-(diphenylmethyl)urea]",IC50,[1],80 nM
same,Blood Cholesterol,[2],127 mg/dL
same,Blood Cholesterol % Change,[2],-43%
"CCc1cccc(CC)c1NC(=O)NC(Cc1ccccc1)c1ccccc1 (stereo not shown) [Example 1, N-(2,6-Diethylphenyl)-N'-(1,2-diphenylethyl)urea]",IC50,[1],93 nM
same,Blood Cholesterol,[2],147 mg/dL
same,Blood Cholesterol % Change,[2],-29%

# Reference: patent publication US5116848A, “N-(((2,6-disubstituted)phenyl)-N-diarylalkyl)ureas as antihyperlipidemic and antiatherosclerotic agents” (priority 1988, dated 1992)
